Source: patent publication US9937145B2, “Sulfamate derivative compound for use in preventing or treating epilepsy” (Bio-Pharm Solutions Co., Ltd., priority 2013, dated 2018)

Key:
Type in all cases: in vivo
male ICR mice = test: MES test (anti-epilepsy activity), mice, oral (mMES po); conditions: Mus musculus; for ED50: mice, at peak time
Description: (§1) Biological Experimental Example. 1: Measurement of Anti-Epilepsy Activity (MES-Test)
(§2) In the MES test (Ref., G. Villetti et al. Neuropharmacology 40(2001) 866-878), an electrical stimulus (mice: 50 mA, 60 Hz, 0.2 sec, and rats: 150 mA, 60 Hz, 0.2 sec in the test animal) supplied by an 11 A Shocker (IITC Life Science Company) was delivered through corneal electrodes. All mice or rats assigned to any electroshock at peak time were treated with each test compound sample which was dissolved in 20% tween 80 prepared by saline solvent applied orally before the test. […] Three doses of the test sample were administered orally to 9-18 animals (3-6 mice per dose) for evaluating the respective doses at which 50% of the animals were protected from seizure (ED50). The ED50 value (median effective close) was calculated by Litchfield and Wicoxon log-probit method which is a dose-response relationship. Experimental animals, male ICR mice and male SD rats, were purchased from OrientBio, Samtako, or Nara Biotech, Korea, and housed in cages (4-5 mice or 3 rats per cage) for 4-5 days. The range of mice body weight was between 19 and 25 grams and range of rats body weight was between 100 and 130 grams.
(§3) The obtained results are shown as mean±sem. The difference between the groups was statistically analyzed by ANOVA, and then further examined by Dunnett's test or Bonferroni test. If p is less than 0.05, it was determined that the difference between the groups had statistical significance.
(§4) The results of anti-epileptic activity of the sulfamate derivative compounds measured in the above Experimental Example are shown in the following Tables 4 and 5.

male SD rats = test: MES test (anti-epilepsy activity), rats, oral (rMES po); conditions: for ED50: Rattus norvegicus, rats, at peak time
Description: as §1, §2, §3, §4

Male Sprague-Dawley rats [1] = test: Lithium-pilocarpine induced epilepsy test (LI-PILO), prevention test, i.p.; conditions: for Anti-epileptogenesis (rat/ip) Protection %: 6 rats; for Anti-epileptogenesis (rat/ip) Peak Time / ED50: prevention, rat; for ED50: ip, at peak time, read-out: Anti-epileptogenesis (rat/ip) ED50(mg/kg)
Description: (§5) Biological Experimental Example 2: Lithium-Pilocarpine Induced Epilepsy Test (LI-PILO Test)
(§6) Male Sprague-Dawley rats (purchased from Orient Bio Inc. Korea) of body weight 175 grams were used for these studies and 3 rats per cage were housed for 4-5 days. On the day prior to SE, rats received 127 mg/kg lithium chloride (Sigma, St. Louis, Mo., U.S.A.) intraperitoneally (i.p.). Approximately 18-20 h following this treatment, rats were given an i.p. injection of 43 mg/kg pilocarpine (Sigma). An i.p. injection of 2 mg/kg methyl-scopolamine (Sigma) was administered 30 min prior to pilocarpine to block the effects of the muscarinic agonist on peripheral cholinergic receptors. Test drugs were dissolved in 20% tween80 (Sigma).
The drugs were administered intraperitoneally (i.p.) in a volume of 2 ul/g body weight. Pharmacological effects of all of the test materials were evaluated to compare test groups (n=6) with a control group (n=6). Control group was administered vehicle only. The efficacy was measured 0.5, 1, 2, or 4 hours after the administration of the test material. The time point that the most animals were protected was defined as peak time and the ED50 was determined at peak time. The animals were then transferred to observation cages and observed continuously for 90 min. Seizure was elicited in approximately 95% of the control group. Protection was defined as complete absence of seizure grade 3˜5 (Racine scale; Racine, 1972) over the 90-min observation period. The effective dose of the compound necessary to protect 50% of the animals against seizures compared to controls (i.e. ED50) was determined by a curve fitting program (Excel 2007, Microsoft).
(§7) The results of Lithium-pilocarpine induced epilepsy test of the sulfamate derivative compounds measured in the above Experimental Example are shown in the following Tables 6.

Male Sprague-Dawley rats [2] = test: Lithium-pilocarpine induced epilepsy test (LI-PILO), intervention, i.v. at SE onset; conditions: iv; rat, administered at SE onset; read-out: Therapeutic effect (min, rat/lv) ED50(mg/kg)
Description: as §5, §6
The drugs were administered intravenously (i.v.) in a volume of 2 ul/g body weight at SE onset. Pharmacological effects of all of the test materials were evaluated to compare test groups (n=3-6) with a control group (n=3-6). Control group was administered vehicle only. The animals were then transferred to observation cages and observed continuously for 90 min. Seizure was elicited in approximately 95% of the control group. […]
as §7

Male Sprague-Dawley rats [3] = test: Lithium-pilocarpine induced epilepsy test (LI-PILO), prevention test, i.p.; conditions: injection amount 30 mg/kg, 3 rats, 1 h
[4] = injection amount 150 mg/kg, 2 h

Row | SMILES | ED50 (male ICR mice) [mg/kg] | ED50 (male SD rats) [mg/kg] | Anti-epileptogenesis (rat/ip) Protection % (Male Sprague-Dawley rats [1]; [4]) | Anti-epileptogenesis (rat/ip) Peak Time (Male Sprague-Dawley rats [1]) [h] | ED50 (Male Sprague-Dawley rats [1]) [mg/kg] | ED50 (Male Sprague-Dawley rats [2]) [mg/kg] | responders at 50 mg/kg (male ICR mice; injection amount 50 mg/kg, 4 mice, read-out: mMES(po) Protection %) [%] | rMES(po) Protection % (male SD rats; injection amount 50 mg/kg, 6 rats) | Anti-epileptogenesis (rat/ip) Protection % (Male Sprague-Dawley rats [1]; injection amount 100 mg/kg, 1 h) | Anti-epileptogenesis (rat/ip) Protection % (Male Sprague-Dawley rats [1]; injection amount 100 mg/kg, 2 h) | responders at 100 mg/kg (male ICR mice; injection amount 100 mg/kg, 3 mice, read-out: mMES(po) Protection %) [%] | Anti-epileptogenesis (rat/ip) Protection % (Male Sprague-Dawley rats [3])
1 | CC1(C)O[C@H](c2ccccc2Cl)[C@@H](COS(N)(=O)=O)O1 [Example 1, ((4R,5R)-5-(2-chlorophenyl)-2,2-dimethyl-1,3-dioxolan-4-yl)methyl sulfamate] | 6.5 | 1.2 | (50%) | 2 |  |  |  |  |  |  |  | 
2 | CC1(C)O[C@@H](COS(N)(=O)=O)[C@H](c2ccccc2Cl)O1 [Example 2, ((4S, 5S)-5-(2-chlorophenyl)-2,2-dimethyl-1,3-dioxolan-4-yl)methyl sulfamate] | 9 | 3.5 |  | 4 | 97.1 | 89 |  |  |  |  |  | 
3 | CC1(C)O[C@H](c2ccccc2F)[C@@H](COS(N)(=O)=O)O1 [Example 15, ((4R, 5R)-5-(2-fluorophenyl)-2,2-dimethyl-1,3-dioxolan-4-yl)methyl sulfamate] |  |  | 150^b(16.6%) |  |  |  | 100 | 50^b(66.6%) | (16.6%) | (50%) |  | 
4 | CC1(C)O[C@@H](COS(N)(=O)=O)[C@H](c2ccccc2I)O1 [Example 28, ((4S, 5S)-5-(2-iodophenyl)-2,2-dimethyl-1,3-dioxolan-4-yl)methyl sulfamate] | 15 | 32.7 |  | 1 | 154 |  |  |  |  |  |  | 
5 | Cc1ncsc1[C@H]1OC(C)(C)O[C@@H]1COS(N)(=O)=O [Example 167, ((4R, 5S)-2,2-dimethyl-5-(4-methylthiazol-5-yl)-1,3-dioxolan-4-yl)methylsulfamate] |  |  |  | 1 |  |  |  |  |  |  | 100 | 30^a(100%)
